Test results published in US9845326B2, “Substituted 3,4-dihydropyrrolo[1,2-A]pyrazines as beta-secretase (BACE) inhibitors” (priority 2011, dated 2017).

Assays:
BACE1 = BACE1 (Homo sapiens, UniProt P56817); assay: Biochemical FRET based assay; conditions: Biochemical FRET based assay pIC50, recombinant BACE1 1 μg/ml, 120 min, room temperature, pH 5.0
Text: This assay is a Fluorescence Resonance Energy Transfer Assay (FRET) based assay. The substrate for this assay is an APP derived 13 amino acids peptide that contains the ‘Swedish’ Lys-Met/Asn-Leu mutation of the amyloid precursor protein (APP) β-secretase cleavage site. This substrate also contains two fluorophores: (7-methoxy-coumarin-4-yl) acetic acid (Mca) is a fluorescent donor with excitation wavelength at 320 nm and emission at 405 nm and 2,4-Dinitrophenyl (Dnp) is a proprietary quencher acceptor. […] Upon cleavage by BACE1, the fluorophore Mca is separated from the quenching group Dnp, restoring the full fluorescence yield of the donor. The increase in fluorescence is linearly related to the rate of proteolysis (Koike H et al. J. Biochem. 1999, 126, 235-242).
Briefly in a 384-well format recombinant BACE1 protein in a final concentration of 1 μg/ml is incubated for 120 min at room temperature with 10 μm substrate in incubation buffer (40 mM Citrate buffer pH 5.0, 0.04% PEG, 4% DMSO) in the absence or presence of compound. Next the amount of proteolysis is directly measured by fluorescence measurement at T=0 and T=120 (excitation at 320 nm and emission at 405 nm). Results are expressed in RFU, as difference between T120 and T0
From this an IC50 value (inhibitory concentration causing 50% inhibition of activity) can be obtained.

Aβ42 = assay: Cellular αlisa assay in SKNBE2 cells, Aβ42; assay type: cell-based, human; conditions: SKNBE2 cells expressing hAPP695, 18 hours incubation; for IC50: Homo sapiens, SKNBE2, 18 h, read-out: Cellular αlisa assay in SKNBE2 cells Aβ42 pIC50 (converted)
Experimental: (§1) In two αlisa assays the levels of Aβtotal and Aβ42 produced and secreted into the medium of human neuroblastoma SKNBE2 cells are quantified. The assay is based on the human neuroblastoma SKNBE2 expressing the wild type Amyloid Precursor Protein (hAPP695). The compounds are diluted and added to these cells, incubated for 18 hours and then measurements of Aβ42 and Aβtotal are taken. Aβtotal and Aβ42 are measured by sandwich αlisa. αlisa is a sandwich assay using biotinylated antibody AbN/25 attached to streptavidin coated beads and antibody Ab4G8 or cAb42/26 conjugated acceptor beads for the detection of Aβtotal and Aβ42 respectively. In the presence of Aβtotal or Aβ42, the beads come into close proximity. The excitation of the Donor beads provokes the release of singlet oxygen molecules that triggers a cascade of energy transfer in the Acceptor beads, resulting in light emission. Light emission is measured after 1 hour incubation (excitation at […] and emission at 615 nm).
(§2) From this an […] value (inhibitory concentration causing 50% inhibition of activity) can be obtained.

Aβtotal = assay: Cellular αlisa assay in SKNBE2 cells, Aβtotal; assay type: cell-based, human; conditions: SKNBE2 cells expressing hAPP695, 18 hours incubation; for IC50: Homo sapiens, SKNBE2, 18 h, read-out: Cellular αlisa assay in SKNBE2 cells Aβtotal pIC50 (converted)
Experimental: as §1, §2

BACE1, sequence (P56817 46-501): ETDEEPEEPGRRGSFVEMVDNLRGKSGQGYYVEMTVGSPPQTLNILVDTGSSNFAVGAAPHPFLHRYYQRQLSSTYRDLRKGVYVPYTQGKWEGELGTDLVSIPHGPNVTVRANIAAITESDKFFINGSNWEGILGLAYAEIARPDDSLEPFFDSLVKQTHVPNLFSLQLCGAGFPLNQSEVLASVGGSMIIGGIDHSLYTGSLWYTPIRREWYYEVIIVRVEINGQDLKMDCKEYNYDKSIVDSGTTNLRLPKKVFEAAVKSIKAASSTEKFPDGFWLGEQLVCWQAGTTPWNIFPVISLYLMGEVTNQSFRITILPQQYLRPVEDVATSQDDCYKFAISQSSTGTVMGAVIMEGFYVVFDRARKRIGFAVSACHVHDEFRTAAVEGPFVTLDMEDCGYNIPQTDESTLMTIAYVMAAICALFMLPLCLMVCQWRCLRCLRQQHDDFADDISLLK

| Structure (SMILES) | IC50 (BACE1) [nM] | Cellular αlisa assay in SKNBE2 cells Aβ42 pIC50 (Aβ42) | Cellular αlisa assay in SKNBE2 cells Aβtotal pIC50 (Aβtotal) | IC50 (Aβ42) [nM] | IC50 (Aβtotal) [nM] |
| --- | --- | --- | --- | --- | --- |
| COc1cnc(C(=O)Nc2ccc(F)c(C3(C(F)F)Cn4cccc4C(N)=N3)c2)cn1 (single isomer, unassigned) [Compound 13] | 18200 | 5.63 | 5.62 | – | – |
| Cc1nc(C(=O)Nc2ccc(F)c([C@]3(C)Cn4cc(F)cc4C(N)=N3)c2)c(C(F)(F)F)o1 [Compound 18] | 83.2 | – | – | 31.6 | 30.9 |
| COCC1(c2cc(NC(=O)c3ccn(C(F)F)n3)ccc2F)Cn2cc(C(F)(F)F)cc2C(N)=N1 (stereo not drawn) [Compound 26] | 2880 | – | – | 501 | 537 |
| C[C@@]1(c2cc(NC(=O)c3ccc(C#N)cn3)ccc2F)Cn2cc(C(F)(F)F)cc2C(N)=N1 [Compound 9] | 33.9 | – | – | 12 | 10.7 |
| CC1(c2cccc(NC(=O)c3ccc(Cl)cn3)c2)Cn2cccc2C(N)=N1 (racemic) [Compound 3, rac-5-chloro-pyridine-2-carboxylic acid[3-(1-amino-3-methyl-3,4-dihydro-pyrrolo[1,2-a]pyrazin-3-ye-phenyl]-amide] | 135 | – | – | 100 | 95.5 |
| CC1(c2cccc(-c3cc(Cl)cc(Cl)c3)c2)Cn2cccc2C(N)=N1 (racemic) [Compound 2, rac-3-(3′,5′-dichloro-biphenyl-3-yl)-3-methyl-3,4-dihydro-pyrrolo[1,2-a]pyrazin-1-ylamine] | 3720 | – | – | 4470 | 4270 |
| COCC1(c2cc(NC(=O)c3ccc(F)cn3)ccc2F)Cn2cc(C(F)(F)F)cc2C(N)=N1 (stereo not drawn) [Compound 29] | 2040 | 6.32 | 6.33 | – | – |
| Cc1nc(C(=O)Nc2ccc(F)c([C@]3(C)Cn4cc(F)cc4C(N)=N3)c2)c(C)o1 [Compound 17] | 67.6 | – | – | 32.4 | 33.9 |
| COCC1(c2cc(NC(=O)c3ccn(C(F)F)n3)ccc2F)Cn2cc(C(F)(F)F)cc2C(N)=N1 (single isomer, unassigned) [Compound 31] | > 50100 | <5 | <5 | – | – |
| C[C@@]1(c2cc(NC(=O)c3ccsn3)ccc2F)Cn2cc(C(F)(F)F)cc2C(N)=N1 [Compound 22] | 224 | – | – | 49 | 47.9 |
| COCC1(c2cc(NC(=O)c3ccc(F)cn3)ccc2F)Cn2cc(C(F)(F)F)cc2C(N)=N1 (stereo not drawn) [Compound 30] | 34700 | <5 | <5 | – | – |
| COc1cnc(C(=O)Nc2cccc(C3(C)Cn4cccc4C(N)=N3)c2)cn1 (racemic) [Compound 4, rac-5-methoxy-pyrazine-2-carboxylic acid [3-(1-amino-3-methyl-3,4-dihydro-pyrrolo[1,2-a]pyrazin-3-ye-phenyl]-amide] | 234 | – | – | 110 | 93.3 |
| COc1cnc(C(=O)Nc2ccc(F)c(C3(C(F)F)Cn4cccc4C(N)=N3)c2)cn1 (single isomer, unassigned) [Compound 12] | 37.2 | 7.85 | 7.9 | – | – |
| COCC1(c2cc(NC(=O)c3ccn(C(F)F)n3)ccc2F)Cn2cc(C(F)(F)F)cc2C(N)=N1 (single isomer, unassigned) [Compound 32] | 1740 | 6.54 | 6.53 | – | – |
| COCC1(c2cc(NC(=O)c3cnc(OC)cn3)ccc2F)Cn2cc(C(F)(F)F)cc2C(N)=N1 (stereo not drawn) [Compound 28] | 1910 | 6.53 | 6.52 | – | – |
| Cc1nc(C(=O)Nc2ccc(F)c([C@]3(C)Cn4cc(C(F)(F)F)cc4C(N)=N3)c2)co1 [Compound 20] | 102 | – | – | 24 | 23.4 |
| COc1cnc(C(=O)Nc2ccc(F)c(C3(C(F)F)Cn4cccc4C(N)=N3)c2)cn1 (racemic) [Compound 11] | 107 | – | – | 11 | 9.55 |
| C[C@@]1(c2cc(NC(=O)c3ncc(C#N)cc3F)ccc2F)Cn2cc(C(F)(F)F)cc2C(N)=N1 [Compound 15] | 36.3 | – | – | 9.33 | 8.91 |
| NC1=NC(c2cc(NC(=O)c3ccc(F)cn3)ccc2F)(C(F)F)Cn2cccc21 (stereo not drawn) [Compound 14] | 174 | – | – | 37.2 | 35.5 |
| CC1(c2cccc(-c3cncnc3)c2)Cn2cccc2C(N)=N1 (racemic) [Compound 1, rac-3-methyl-3-(3-pyrimidin-5-yl-phenyl)-3,4-dihydro-pyrrolo[1,2-a]pyrazin-1-ylamine] | 12000 | – | – | 3980 | 3890 |
| COCC1(c2cc(NC(=O)c3ccc(F)cn3)ccc2F)Cn2cc(C(F)(F)F)cc2C(N)=N1 (stereo not drawn) [Compound 25] | 5010 | 6.04 | 6.07 | – | – |
| Cc1nc(C(=O)Nc2ccc(F)c([C@]3(C)Cn4cc(F)cc4C(N)=N3)c2)co1 [Compound 16] | 49 | – | – | 20.4 | 19.5 |
| COc1cnc(C(=O)Nc2ccc(F)c([C@]3(C)Cn4cc(F)cc4C(N)=N3)c2)cn1 [Compound 8, (R)-5-methoxy-pyrazine-2-carboxylic acid [3-(1-amino-7-fluoro-3-methyl-3,4-dihydro-pyrrolo[1,2-a]pyrazin-3-yl)-4-fluoro-phenyl]-amide] | 33.1 | – | – | 2.19 | 2.04 |
| Cc1nc(C(=O)Nc2ccc(F)c([C@]3(C)Cn4cc(C(F)(F)F)cc4C(N)=N3)c2)co1 [Compound 21] | 95.5 | 7.83 | 7.79 | – | – |
| Cc1nc(C(=O)Nc2ccc(F)c([C@]3(C)Cn4cc(C(F)(F)F)cc4C(N)=N3)c2)c(C(F)(F)F)o1 [Compound 23] | 182 | – | – | 75.9 | 77.6 |
| C[C@@]1(c2cc(NC(=O)c3ccc(Cl)cn3)ccc2F)Cn2cccc2C(N)=N1 [Compound 5, (R)-5-chloro-pyridine-2-carboxylic acid [3-(1-amino-3-methyl-3,4-dihydro-pyrrolo[1,2-a]pyrazin-3-yl)-4-fluoro-phenyl]-amide] | 37.2 | – | – | 2.95 | 2.82 |
| Cc1nc(C(=O)Nc2ccc(F)c([C@]3(C)Cn4cc(C(F)(F)F)cc4C(N)=N3)c2)c(C)o1 [Compound 19] | 178 | – | – | 66.1 | 63.1 |
| C[C@@]1(c2cc(NC(=O)c3ccn(C(F)F)n3)ccc2F)Cn2cc(C(F)(F)F)cc2C(N)=N1 [Compound 10] | 47.9 | – | – | 13.5 | 12.6 |
| COCC1(c2cc(NC(=O)c3cnc(OC)cn3)ccc2F)Cn2cc(C(F)(F)F)cc2C(N)=N1 (stereo not drawn) [Compound 27] | > 50100 | <5 | <5 | – | – |
| COCC1(c2cc(NC(=O)c3cnc(OC)cn3)ccc2F)Cn2cc(C(F)(F)F)cc2C(N)=N1 (stereo not drawn) [Compound 24] | 3160 | 6.30 | 6.35 | – | – |
